Source: patent publication US9845322B2 (Hoffmann-La Roche Inc., priority 2016, dated 2017)
Where two headings read alike, the source gives them in different places.

Tested on: HBsAg secretion in HepG2.2.15 cells
Test: HBsAg assay (chemiluminescence immunoassay of secreted HBsAg in culture supernatant)
Assay type: cell-based, HBV
Conditions: concentration at which HBsAg secretion was reduced by 50% compared to the no drug control, read-out: IC50 (HBsAg assay)
Description: HepG2.2.15 cells (Acs et al. Proc Natl Acad Sci USA, 84, (1987), 4641-4), a constitutively HBV-expressing cell line were cultured in DMEM+Glutamax-I medium (Invitrogen, Carlsbad, Calif., USA), supplemented with 10% fetal bovine serum (Invitrogen) and G418 (Invitrogen) at a final concentration of 200 mg/L and maintained in 5% CO2 at 37° C.
HepG2.2.15 cells were seeded in duplicate into white, 96-well plates at 1.5×10^4 cells/well. The cells were treated with a three-fold serial dilution series of the compounds in DMSO. The final DMSO concentration in all wells was 1% and DMSO was used as no drug control.
The HBsAg chemiluminescence immunoassay (CLIA) kit (Autobio Diagnostics Co., Zhengzhou, China, Catalog number: CL0310-2) was used to measure the levels of secreted HBV antigens semi-quantitatively. For the detection 50 μL/well culture supernatant was used and HBsAg was quantified using HBsAg chemiluminescence immunoassay (CLIA) kit (Autobio Diagnostics Co., Zhengzhou, China, Catalog number: CL0310-2), 50 μL of the supernatant was transferred to the CLIA assay plate and 50 μL of enzyme conjugate reagent was added into each well. The plates were sealed and gently agitated for 1 hour at room temperature. The supernatant-enzyme-mixture was discarded and wells were washed 6 times with 300 μL of PBS. The residual liquid was removed by plating the CLIA plate […] on absorbent tissue paper. 25 μL of substrates A and B were added to each well. Luminance was measured using a luminometer (Mithras LB 940 Multimode Microplate Reader) after 10 minutes incubation. Dose-response curves were generated and the IC50 value was extrapolated by using the E-WorkBook Suite (ID Business Solutions Ltd., Guildford, UK). The IC50 was defined as the compound concentration (or conditioned media log dilution) at which HBsAg secretion was reduced by 50% compared to the no drug control.
The compounds according to formula I were tested for their capacity to inhibit HBsAg as described herein.

[1] = Hepatitis B virus, HepG2.2.15, HepG2.2.15 cells

| SMILES | IC50 (HepG2.2.15 cells) [nM] | IC50 [1] [nM] |
| --- | --- | --- |
| CC1c2cnc(-c3ccccn3)nc2CCN1c1ccc([N+](=O)[O-])cc1 (single isomer, unassigned; (+)) [Example 2, (+)-5-methyl-6-(4-nitrophenyl)-2-(2-pyridyl)-7,8-dihydro-5H-pyrido[4,3-d]pyrimidine] | 2060 | – |
| COc1cc(N2CCc3nc(-c4ccccn4)ncc3C2C)cc(F)c1F (single isomer, unassigned; (+)) [Example 6, (+)-6-(3,4-difluoro-5-methoxy-phenyl)-5-methyl-2-(2-pyridyl)-7,8-dihydro-5H-pyrido[4,3-d]pyrimidine] | 8070 | – |
| CCC1c2cnc(-c3ccccn3)nc2CCN1c1cc(F)c(F)c(OC)c1 (single isomer, unassigned; (+)) [Example 10, (+)-6-(3,4-difluoro-5-methoxy-phenyl)-5-ethyl-2-(2-pyridyl)-7,8-dihydro-5H-pyrido[4,3-d]pyrimidine] | 21900 | – |
| CCCC1c2cnc(-c3ccccn3)nc2CCN1c1cc(F)c(F)c(OC)c1 (single isomer, unassigned; (+)) [Example 13, (+)-6-(3,4-difluoro-5-methoxy-phenyl)-5-propyl-2-(2-pyridyl)-7,8-dihydro-5H-pyrido[4,3-d]pyrimidine] | 14400 | – |
| COc1cc(N2CCc3nc(-c4ncccn4)ncc3C2C)cc(F)c1F (single isomer, unassigned; (+)) [Example 16, (+)-6-(3,4-difluoro-5-methoxy-phenyl)-5-methyl-2-pyrimidin-2-yl-7,8-dihydro-5H-pyrido[4,3-d]pyrimidine] | 1520 | – |
| COCCOc1cc(N2CCc3nc(-c4ccccn4)ncc3C2C)cc(F)c1F (single isomer, unassigned; (+)) [Example 20, (+)-6-[3,4-difluoro-5-(2-methoxyethoxy)phenyl]-5-methyl-2-(2-pyridyl)-7,8-dihydro-5H-pyrido[4,3-d]pyrimidine] | 5010 | – |
| COc1cc(N2CCc3nc(-c4ncccn4)ncc3C2C)cc(Cl)c1F (single isomer, unassigned; (+)) [Example 42, (+)-6-(3-chloro-4-fluoro-5-methoxy-phenyl)-5-methyl-2-pyrimidin-2-yl-7,8-dihydro-5H-pyrido[4,3-d]pyrimidine] | 3250 | – |
| CC1c2cnc(-c3ncccn3)nc2CCN1c1cc(O)c(F)c(F)c1 (single isomer, unassigned; (+)) [Example 46, (+)-2,3-difluoro-5-(5-methyl-2-pyrimidin-2-yl-7,8-dihydro-5H-pyrido[4,3-d]pyrimidin-6-yl)phenol] | 8170 | – |
| CC1c2cnc(-c3ncccn3)nc2CCN1c1cc(F)c(F)c(OCCCS(C)(=O)=O)c1 (single isomer, unassigned; (+)) [Example 48, (+)-6-[3,4-difluoro-5-(3-methylsulfonylpropoxy)phenyl]-5-methyl-2-pyrimidin-2-yl-7,8-dihydro-5H-pyrido[4,3-d]pyrimidine] | 184 | – |
| CC1c2cnc(-c3ncccn3)nc2CCN1c1cc(F)c(F)c(OCCCCCCN)c1 (single isomer, unassigned; (+)) [Example 61, (+)-6-[2,3-difluoro-5-[5-methyl-2-pyrimidin-2-yl-7,8-dihydro-5H-pyrido[4,3-d]pyrimidin-6-yl]phenoxy]hexan-1-amine] | 3320 | – |
| CC1c2cnc(-c3ncccn3)nc2CCN1c1cc(F)c(F)c(OCC(N)=O)c1 (single isomer, unassigned; (+)) [Example 67, (+)-2-[2,3-difluoro-5-[5-methyl-2-pyrimidin-2-yl-7,8-dihydro-5H-pyrido[4,3-d]pyrimidin-6-yl]phenoxy]acetamide] | 32300 | – |
| COc1cc(F)cc(N2CCc3nc(-c4ncccn4)ncc3C2C)c1 (single isomer, unassigned; (+)) [Example 74, (+)-6-(3-fluoro-5-methoxy-phenyl)-5-methyl-2-pyrimidin-2-yl-7,8-dihydro-5H-pyrido[4,3-d]pyrimidine] | 2250 | – |
| COc1cc(F)c(Cl)c(N2CCc3nc(-c4ncccn4)ncc3C2C)c1Cl (single isomer, unassigned; (+)) [Example 123, (+)-6-(2,6-dichloro-3-fluoro-5-methoxy-phenyl)-5-methyl-2-pyrimidin-2-yl-7,8-dihydro-5H-pyrido[4,3-d]pyrimidine] | – | 1140 |
| COc1c(Cl)c(F)cc(N2CCc3nc(-c4ncccn4)ncc3C2C)c1Cl (single isomer, unassigned; (+)) [Example 124, (+)-6-(2,4-dichloro-5-fluoro-3-methoxy-phenyl)-5-methyl-2-pyrimidin-2-yl-7,8-dihydro-5H-pyrido[4,3-d]pyrimidine] | – | 1250 |
| COc1cc(N2CCc3nc(-c4ncccn4)ncc3C2C)c(Cl)c(F)c1Cl (single isomer, unassigned; (+)) [Example 125, (+)-6-(2,4-dichloro-3-fluoro-5-methoxy-phenyl)-5-methyl-2-pyrimidin-2-yl-7,8-dihydro-5H-pyrido[4,3-d]pyrimidine] | – | 1120 |
| COc1cc(F)nc(N2CCc3nc(-c4ncccn4)ncc3C2C)c1 (single isomer, unassigned; (+)) [Example 139, (+)-6-(6-fluoro-4-methoxy-2-pyridyl)-5-methyl-2-pyrimidin-2-yl-7,8-dihydro-5H-pyrido[4,3-d]pyrimidine] | 1590 | – |
| CC1c2cnc(-c3ncccn3)nc2CCN1c1cc(N2CCCC2)cc(F)n1 (single isomer, unassigned; (+)) [Example 201, (+)-6-(6-fluoro-4-pyrrolidin-1-yl-2-pyridyl)-5-methyl-2-pyrimidin-2-yl-7,8-dihydro-5H-pyrido[4,3-d]pyrimidine] | 124 | – |
| CC1c2cnc(-c3ncccn3)nc2CCN1c1cc(F)cc(N(C)C)n1 (single isomer, unassigned; (+)) [Example 204, (+)-4-fluoro-N,N-dimethyl-6-[5-methyl-2-pyrimidin-2-yl-7,8-dihydro-5H-pyrido[4,3-d]pyrimidin-6-yl]pyridin-2-amine] | 113 | – |
| CC1c2cnc(-c3ncccn3)nc2CCN1c1cc(N(C)C)cc(F)n1 (single isomer, unassigned; (+)) [Example 206, (+)-2-fluoro-N,N-dimethyl-6-[5-methyl-2-pyrimidin-2-yl-7,8-dihydro-5H-pyrido[4,3-d]pyrimidin-6-yl]pyridin-4-amine] | 285 | – |
| CC1c2cnc(-c3ccccn3)nc2CCN1c1ccc([N+](=O)[O-])cc1 (single isomer, unassigned; (-)) [Example 3, (−)-5-methyl-6-(4-nitrophenyl)-2-(2-pyridyl)-7,8-dihydro-5H-pyrido[4,3-d]pyrimidine] | 115 | – |
| COc1cc(N2CCc3nc(-c4ccccn4)ncc3C2C)cc(F)c1F (single isomer, unassigned; (-)) [Example 7, (−)-6-(3,4-difluoro-5-methoxy-phenyl)-5-methyl-2-(2-pyridyl)-7,8-dihydro-5H-pyrido[4,3-d]pyrimidine] | 12 | – |
| CCC1c2cnc(-c3ccccn3)nc2CCN1c1cc(F)c(F)c(OC)c1 (single isomer, unassigned; (-)) [Example 11, (−)-6-(3,4-difluoro-5-methoxy-phenyl)-5-ethyl-2-(2-pyridyl)-7,8-dihydro-5H-pyrido[4,3-d]pyrimidine] | 85 | – |
| CCCC1c2cnc(-c3ccccn3)nc2CCN1c1cc(F)c(F)c(OC)c1 (single isomer, unassigned; (-)) [Example 14, (−)-6-(3,4-difluoro-5-methoxy-phenyl)-5-propyl-2-(2-pyridyl)-7,8-dihydro-5H-pyrido[4,3-d]pyrimidine] | 2970 | – |
| COCCOc1cc(N2CCc3nc(-c4ccccn4)ncc3C2C)cc(F)c1F (single isomer, unassigned; (-)) [Example 21, (−)-6-[3,4-difluoro-5-(2-methoxyethoxy)phenyl]-5-methyl-2-(2-pyridyl)-7,8-dihydro-5H-pyrido[4,3-d]pyrimidine] | 50 | – |
| CC1c2cnc(-c3ncccn3)nc2CCN1c1cc(O)c(F)c(F)c1 (single isomer, unassigned; (-)) [Example 45, (−)-2,3-difluoro-5-(5-methyl-2-pyrimidin-2-yl-7,8-dihydro-5H-pyrido[4,3-d]pyrimidin-6-yl)phenol] | 176 | – |
| CC1c2cnc(-c3ncccn3)nc2CCN1c1cc(F)c(F)c(OCCCS(C)(=O)=O)c1 (single isomer, unassigned; (-)) [Example 49, (−)-6-[3,4-difluoro-5-(3-methylsulfonylpropoxy)phenyl]-5-methyl-2-pyrimidin-2-yl-7,8-dihydro-5H-pyrido[4,3-d]pyrimidine] | 34 | – |
| CC1c2cnc(-c3ncccn3)nc2CCN1c1cc(F)c(F)c(OCCCCCCN)c1 (single isomer, unassigned; (-)) [Example 60, (−)-6-[2,3-difluoro-5-(5-methyl-2-pyrimidin-2-yl-7,8-dihydro-5H-pyrido[4,3-d]pyrimidin-6-yl)phenoxy]hexan-1-amine] | 22 | – |
